Source: patent US20100098657A1, “Method of Treating Cancer with Immunomodulatory Compounds and IgG” (priority 2007, published 2010)
Like-named read-outs stand apart in the source and are kept apart here. One block for each compound: values may come before it. Peptide text beside a SMILES is read from it.

What was measured:
[1] = test system: Rituximab-treated target cells; test: ADCC in the presence of anti-Fas-L or granzyme inhibitor; type: cell-based; details: lenalidomide plus Rituximab
From the text: Lenalidomide addition had no effect on perforin production, however (FIGS. 6B and 6C).

[2] = test system: perforin; test: NK cell perforin production; type: cell-based, human
Procedure: (§1) To determine whether lenalidomide enhances IFN-γ production, the following assay was performed. Human IgG (Sigma), at a concentration of 100 μg/mL was coated onto 96-well, flat-bottom plates at 4° C. overnight. The unbound IgG was then washed away. […] Lenalidomide (Revlimid®, Celgene Corporation, Summit, N.J.) was added to the wells in the concentration range of 0.008-5 μM. After a 48-hour incubation, the supernatants were harvested and interferon-gamma (IFN-γ), as well as granzyme B and perforin levels were measured.

[3] = test system: granzyme B; test: NK cell granzyme B production; type: cell-based, human
Procedure: as §1

[4] = test system: Fas-L; test: Fas-L expression on CD56+ NK cells (flow cytometry); type: cell-based, human
Procedure: Cytometry was undertaken on 50 μL samples containing 1×10^6 cells/mL in washing buffer, 2% FBS with 0.1% NaN3 in PBS. Fluorochrome-conjugated antibodies, unconjugated antibodies, and isotype control mAb were obtained from PharMingen (San Diego, Calif.). The cells were stained with anti-CD56-PE, anti-FasL-FITC or isotype control mAb (1 μg/10^6 cells), and analyzed by flow cytometry according to the manufacturer's instructions.

[5] = test system: Src homology-2 containing inositol 5′-phosphatase 1 (phospho-SHIP-1); test: Immunoblot analysis of phospho-SHIP-1; type: cell-based; details: IL-12 plus IgG; lenalidomide 10 μM
Procedure: (§2) FIG. 7 is a panel of bar graphs showing the quantitation of an immunoblot comparison of cells treated with either IL-12 alone, IgG alone, IL-12 plus IgG, or IL-12 plus IgG plus lenalidomide (at 0.1 μM to 10 μM).
SHIP-1 is a negative regulator of cell proliferation, survival, and activation and also a negative regulator of Fc-γ and cytokine receptor-mediated signaling (Parihar et al., 2005, Cancer Res. 65:9099-9107). The inhibition of phospho-SHIP-1 increases IFN-γ release following NK cell stimulation with IgG and IL-12 (Parihar et al., 2005, Cancer Res. 65:9099-9107, which is incorporated by reference herein in its entirety) and thus may contribute to the mechanism of action of lenalidomide.

[6] = test system: pPLC-γ2; test: Immunoblot analysis of pPLC-γ2; type: cell-based; details: IL-12 plus IgG
Procedure: as §2
(§3) Additionally, administration of the immunomodulatory compound lenalidomide was capable of increasing both pPLC-γ2 and pERK levels (FIGS. 7B and 7C). Increase in the levels of these proteins were also observed in connection with pomalidomide (FIGS. 13A and 13B). PLC-γ2 is involved in the maturation and activation of NK cells and triggers the release of lytic granules (Regunathan et al., 2006, Jour. Immunol 175:749-754, which is incorporated by reference herein in its entirety). PLC-γ2 also induces IFN-γ production and is necessary for cytotoxicity and chemokine production.

[7] = test system: Rituximab-coated Farage cells; test: ADCC assay: NK cell specific lysis of Rituximab-coated Farage cells; type: cell-based, human; details: E:T=10:1; for EC50: Homo sapiens, Farage; for increase of cell lysis: vs Rituximab-only treated cells
Procedure: (§4) Preparation of NK cells: Purified NK cells (5×10^4) were seeded in 96-well U-bottom plates in 100 μL of 10% RPMI-1640 medium, supplemented with human AB+ serum. […] The cells were then incubated at 37° C. overnight.
(§5) Preparation of Rituximab-coated target cancer cells: Various NHL cell lines (Namalwa, Raji, Farage, and Jeko-1) were treated with 20 μg/mL Rituximab (Rituximab, Genentech, Inc.) for 30 minutes at 37° C. Excess unbound Rituximab was then removed by a washing step.
(§6) Addition of Rituximab-coated target cells to NK cells: The Rituximab-coated target cells (5×103/100 μL/well) were added to the pretreated effector NK cells at a ratio of 10:1. The cells were then co-incubated for 4 hours at 37° C.
(§7) Cytotoxicity analysis: NK cell cytotoxicity against the tumor cell lines was analyzed using a standard lactate dehydrogenase release assay (CytoTox 96 Non-radioactive Cytotoxicity Assay, Promega) to measure ADCC in a 50 μL aliquot of supernatant. The experimental release was corrected by subtraction of the spontaneous release of effector cells at the corresponding dilution. Spontaneous release from target cells alone was <15% of the maximum release as determined with target cells lysed in 1% Triton X-100.
(§8) Determination of effector: target ratio: Specific lysis for each effector-to-target (E:T) cell ratio was calculated using the following formula: % specific lysis=([experimental release−spontaneous release]/[maximum release−spontaneous release])×100.

[8] = test system: NK cells; test: NK cell expression of growth factors/chemokines (IL-2, IgG, lenalidomide); type: cell-based, human; details: lenalidomide 0.1, 1 or 10 μM with IL-2, IgG
From the text: (§9) As shown herein, immunomodulatory compounds, either alone or in combination with other agents, can alter the expression of several growth factors.

[9] = test system: Rituximab-coated Farage cells; test: Monocyte-mediated lysis (ADCC) of Rituximab-coated Farage cells; type: cell-based, human; details: E:T 50:1; lenalidomide at 10 μM; from 5%; no IL-2
Procedure: (§10) NK cells and monocytes were isolated from fresh, buffy-coated, whole blood by 30-minute incubation with RossetteSep cocktail (StemCell Technologies, Inc.) followed by Ficoll-Hypaque density gradient centrifugation. CD56+ NK cells were isolated to ˜85% purity and CD14+ monocytes were isolated to ˜80% purity as determined by flow cytometry.
as §5, §7
Determination of effector: target ratio: Specific lysis for each effector-to-target (E:T) cell ratio was calculated using the following formula: % specific lysis=([experimental release−spontaneous release]/[maximum release−spontaneous release])×100. […]

[10] = test system: NK cells; test: NK IgG-induced IFN-γ assay; type: cell-based, human; details: for EC50: Homo sapiens, read-out: EC50 of enhancement of IFN-γ production
Procedure: as §10, §1

[11] = test system: Rituximab-coated Namalwa cells; test: ADCC assay: NK cell specific lysis of Rituximab-coated Namalwa cells; type: cell-based, human; details: E:T=10:1; for EC50: Homo sapiens
Procedure: as §4, §5, §6, §7, §8

[12] = test system: Rituximab-coated Raji cells; test: ADCC assay: NK cell specific lysis of Rituximab-coated Raji cells; type: cell-based, human; details: for EC50: Homo sapiens, Raji
Procedure: as §4, §5, §6, §7, §8
Enhancement of NK cell cytotoxicity by immunomodulatory compounds lenalidomide and pomalidomide was assessed following procedures substantially similar to those described in Section 6.3, above.

[13] = test system: Rituximab-coated CD20+ Jeko-1 (mantle cell lymphoma) cells; test: ADCC assay: NK cell-mediated killing of Rituximab-coated CD20+ Jeko-1 cells; type: cell-based, human; details: for NK cell-mediated killing: E:T 50:1; for increase in tumor cell killing above background: single agent
Procedure: as §4, §5
[…] The cells were then co-incubated for 4 hours at 37° C.
as §7, §8

[14] = test system: Cetuximab-coated HCT-116 cells; test: NK cell cytotoxicity against Cetuximab-coated HCT-116 cells; type: cell-based, human; details: presence of IL-2
[15] = test system: Rituximab-coated CD20+ Raji cells; test: Monocyte-mediated lysis (ADCC) of Rituximab-coated Raji cells; type: cell-based, human; details: for monocyte-mediated lysis: data not shown
Procedure: as §10, §5, §7, §8
To evaluate monocyte ADCC, similar methods were used to prepare the monocytes.

[16] = test system: pERK; test: Immunoblot analysis of pERK; type: cell-based; details: IL-12 plus IgG
Procedure: as §2, §3

[17] = test system: Trastuzumab-coated SK-BR-3 cells; test: NK cell cytotoxicity against Trastuzumab-coated SK-BR-3 cells; type: cell-based, human
[18] = test system: NK cells; test: NK cell chemokine/cytokine production in response to Trastuzumab-coated SK-BR3 cells; type: cell-based, human; details: for production of any chemokines/cytokines: compound alone; for production of GM-CSF / production of IL-8 / production of IP-10 / production of MCP-1 / production of MIP-1α / production of MIP-1β / production of RANTES: presence of immobilized IgG and IL-2
Procedure: as §9
The effects of immunomodulatory compounds lenalidomide and pomalidomide on NK cell chemokine/cytokine production in response to Trastuzumab-coated SK-BR3 cells were assessed using procedures substantially similar to those described in Section 6.6., above.

[19] = inhibitor 40 μM/mL added 1 hour prior to lenalidomide and IL-2
[20] = lenalidomide 1 μM with IL-2, E:T 50:1

Compound: CC[C@H](C)[C@H](NC(C)=O)C(=O)N[C@@H](CCC(=O)O)C(=O)N[C@H](C(=O)N[C@H](C=O)CC(=O)O)[C@@H](C)O [granzyme B inhibitor II] (Ac-IETD-aldehyde)
prevention of ADCC [1]: totally prevented
effect on IL-2-stimulated perforin production [2, 19]: inactive
effect on IL-2 stimulated granzyme B production [3, 19]: abrogated

levels of phospho-SHIP-1 [5]: decreased
EC50 ([7]; IL-2): 42 nM
EC50 ([7]; IL-12): 33 nM
EC50 ([10]; immobilized IgG + IL-2): 90 nM
EC50 ([10]; immobilized IgG + IL-12): 46 nM
EC50 ([11]; IL-2): 190 nM
EC50 ([11]; IL-12): 240 nM
EC50 ([12]; IL-2, E:T=10:1): 100 nM
EC50 ([12]; IL-12, E:T=10:1): 140 nM
Compound: Nc1cccc2c1CN(C1CCC(=O)NC1=O)C2=O (stereo not shown) [lenalidomide, 1-oxo-2-(2,6-dioxopiperidin-3-yl)-4-aminoisoindoline]
enhancement of NK cell Fas-L expression ([4]; lenalidomide 1 μM + IL-2 + immobilized IgG): > 2 fold
NK cell Fas-L expression ([4]; lenalidomide 1 μM + IL-2 + immobilized IgG, from <2%): 25%
percentage of CD56+ NK cells expressing Fas-L ([4]; lenalidomide 10 μM + immobilized IgG, from <5%): > 10%
NK cell Fas-L expression ([4]; lenalidomide 0.1-10 μM + IL-2 10 ng/mL + immobilized IgG): greater than that achieved by either agent alone
pPLC-γ2 levels [6]: increasing
increase of cell lysis ([7]; IL-2): 1.8 fold
increase of cell lysis ([7]; IL-12): 1.6 fold
NK cell expression of GM-CSF [8]: increased
NK cell expression of IL-6 [8]: decreased
NK cell expression of IL-8 [8]: increased
NK cell expression of IP-10 [8]: increased
NK cell expression of RANTES [8]: increased
NK cell expression of monocyte chemotactic protein-1 (MCP-1) [8]: increased
monocyte-mediated lysis (killing activity) [9]: 20%
enhancement of IFN-γ production of NK cells ([10]; lenalidomide 0.008-5 μM + human IgG + IL-2, vs IgG plus IL-2 alone): 3 fold
enhancement of IFN-γ production of NK cells ([10]; lenalidomide 0.008-5 μM + human IgG + IL-12, vs IgG plus IL-12 alone): 8 fold
IFN-γ production ([10]; lenalidomide alone or lenalidomide plus IgG, no IL-2/IL-12): no IFN-γ was observed
increase of NK cell specific lysis ([11]; presence of IL-2 or IL-12, vs Rituximab-only treated cells): 5 fold
increase of NK cell specific lysis ([12]; E:T=10:1, presence of IL-2 or IL-12, vs Rituximab-only treated cells): 2 fold
NK cell cytotoxicity ([12]; presence of IL-2 (FIG. 8B/9B)): significantly increases
NK cell cytotoxicity ([12]; presence of IL-12 (FIG. 8E/9E)): significantly increases
NK cell-mediated killing ([13]; lenalidomide 1 μM + IL-2, Rituximab-coated cells): 95%
enhancement of NK cell-mediated killing above background ([13]; lenalidomide and Rituximab combined, background killing=40%): 55%
increase in tumor cell killing above background ([13]; background killing=40%): 5%
increase in NK cell-mediated killing activity ([13]; vs Rituximab-only treatment): 1.4 fold
increase in NK cell-mediated killing activity ([13]; vs uncoated (control) cells): > 2 fold
NK cell cytotoxicity [14]: significantly increases
monocyte-mediated lysis [15]: enhance
increase in tumor cell-lysis activity [15, 20]: 2 fold
monocyte-mediated killing [15, 20]: > 60%
pERK levels [16]: increasing
perforin production ([2]; with IL-2): no effect
NK cell cytotoxicity ([17]; presence of IL-2): significantly increases
NK cell cytotoxicity ([17]; presence of IL-12): significantly increases
production of any chemokines/cytokines [18]: did not induce
production of GM-CSF [18]: dose-dependently enhanced
production of IL-8 [18]: dose-dependently enhanced
production of IP-10 [18]: dose-dependently enhanced
production of MCP-1 [18]: dose-dependently enhanced
production of MIP-1α [18]: dose-dependently enhanced
production of MIP-1β [18]: not
production of RANTES [18]: dose-dependently enhanced
granzyme B production ([3]; over that observed with IL-2 alone, dose-dependent): enhanced

levels of phospho-SHIP-1 [5]: decreased
Compound: Nc1cccc2c1C(=O)N(C1CCC(=O)NC1=O)C2=O (stereo not shown) [pomalidomide, 1,3-dioxo-2-(2,6-dioxopiperidin-3-yl)-4-aminoisoindoline]
NK cell Fas-L expression, results compared with lenalidomide ([4]; FIG. 12): similar
pPLC-γ2 levels [6]: Increase
NK cell cytotoxicity ([12]; presence of IL-2 (FIG. 8B/9B)): significantly increases
NK cell cytotoxicity ([12]; presence of IL-12 (FIG. 8E/9E)): significantly increases
NK cell cytotoxicity [14]: significantly increases
monocyte-mediated lysis [15]: enhance
pERK levels [16]: Increase
NK cell cytotoxicity ([17]; presence of IL-2): significantly increases
NK cell cytotoxicity ([17]; presence of IL-12): significantly increases
production of any chemokines/cytokines [18]: did not induce
production of GM-CSF [18]: dose-dependently enhanced
production of IL-8 [18]: dose-dependently enhanced
production of IP-10 [18]: dose-dependently enhanced
production of MCP-1 [18]: dose-dependently enhanced
production of MIP-1α [18]: dose-dependently enhanced
production of MIP-1β [18]: not
production of RANTES [18]: dose-dependently enhanced

Compound: Rituximab: anti-CD20 antibody Rituximab (Rituxan®)
NK cell-mediated killing ([13]; Rituximab-coated cells without lenalidomide): 70%
increase in tumor cell killing above background ([13]; background killing=40%): approximately 30%
maximum killing activity ([15]; Rituximab-coated cells, no immunomodulatory compound, E:T 50:1): ~30%
